Here are results for 34 molecules from US20230348426A1, “OXOPYRROLIDINE FPR2 AGONISTS” (Bristol-Myers Squibb Company, priority 2020, published 2023).

The target in one assay is human FPR2 (Homo sapiens (Human), UniProt P25090). Nature of the assay: FPR2 cyclic adenosine monophosphate (cAMP) assay. In kind it is cell-based. Particulars: CHO cells overexpressing human FPR2; forskolin 5 µM; inhibition of cAMP production; read-out: hFPR2 cAMP2 EC50. The gist of the method: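 CHO cells overexpressing human FPR2 (2,000/well) incubated 30 min at room temperature with compound (0.020 nM–100 µM, 1% DMSO), 5 µM forskolin and 200 µM IBMX.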
Sequence of human FPR2 (P25090 whole entry): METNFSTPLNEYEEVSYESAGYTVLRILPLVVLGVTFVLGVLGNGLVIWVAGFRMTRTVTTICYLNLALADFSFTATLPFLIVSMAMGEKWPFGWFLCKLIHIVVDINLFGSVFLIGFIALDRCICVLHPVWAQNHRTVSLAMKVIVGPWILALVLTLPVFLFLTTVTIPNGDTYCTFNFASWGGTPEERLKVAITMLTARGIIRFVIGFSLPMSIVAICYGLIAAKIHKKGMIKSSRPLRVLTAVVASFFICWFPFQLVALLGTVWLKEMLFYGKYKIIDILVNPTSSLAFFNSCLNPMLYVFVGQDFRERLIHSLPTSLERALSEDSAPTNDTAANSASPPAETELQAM
For orientation: cAMP levels reflect the balance of adenylyl cyclase and phosphodiesterase activity.

The next assay has as its target human FPR1 (Homo sapiens (Human), UniProt P21462). Nature of the assay: FPR1 cyclic adenosine monophosphate (cAMP) assay. Particulars: CHO cells overexpressing human FPR1; forskolin 10 µM; inhibition of cAMP production; read-out: hFPR1 cAMP EC50. Format: cell-based. The gist of the method: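 CHO cells overexpressing human FPR1 (4,000 cells/well) stimulated with 10 µM forskolin plus 200 µM IBMX in the presence of compound (0.020 nM–100 µM, 1% DMSO), 30 min at room temperature. Intracellular cAMP measured by HTRF. Inhibition of cAMP production fitted to a 4-parameter logistic equation.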

Sequence of human FPR1 (P21462 whole entry): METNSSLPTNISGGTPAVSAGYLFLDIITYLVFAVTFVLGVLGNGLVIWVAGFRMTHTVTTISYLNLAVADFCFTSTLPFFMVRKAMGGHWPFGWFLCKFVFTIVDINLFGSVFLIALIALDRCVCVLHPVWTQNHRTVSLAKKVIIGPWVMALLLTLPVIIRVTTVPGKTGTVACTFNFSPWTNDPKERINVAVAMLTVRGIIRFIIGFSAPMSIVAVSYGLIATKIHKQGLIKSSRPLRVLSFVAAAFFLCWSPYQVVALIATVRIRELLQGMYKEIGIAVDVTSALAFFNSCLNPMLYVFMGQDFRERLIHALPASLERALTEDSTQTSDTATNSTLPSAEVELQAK

Usually EC50 stands for the midpoint of the concentration-response curve. Turning to `COc1cc(F)c([C@@H]2CN(c3cccn(CC(C)O)c3=O)C(=O)[C@H]2NC(=O)c2ccc(OC(F)(F)F)cc2)c(F)c1` (some centres unmarked) [Example 89], the concentration giving a half-maximal response (EC50) at human FPR2 was 2.4 nM; on human FPR1, 45 nM.

Turning to `COc1cc(F)c([C@@H]2CN(c3c(C)ccn(CC(F)F)c3=O)C(=O)[C@H]2NC(=O)c2ccc(OC(F)F)cc2)c(F)c1` [Example 90], the values for the EC50 at human FPR2 and at human FPR1 were 2.5 nM and 3.5 nM, respectively.

On to `COc1ccc([C@@H]2CN(c3cccn(CC(F)F)c3=O)C(=O)[C@H]2NC(=O)c2ccc(OC(F)F)cc2)cc1` [Example 91], for which the EC50 at human FPR2 stood at 2.6 nM; on human FPR1 it was 16 nM.

With `COCC(C(=O)N(C)C)n1cccc(N2C[C@@H](c3c(F)cc(OC)cc3F)[C@H](NC(=O)c3ccc(OC(F)F)cc3)C2=O)c1=O` (some centres unmarked) [Example 92], the EC50 at human FPR2 stood at 2.6 nM; at human FPR1, 3.6 nM.

As to `CCn1cccc(N2C(=O)[C@@H](NC(=O)c3ccc(OC(F)(F)F)cc3)[C@H](c3c(F)cc(OC)cc3F)[C@@H]2C)c1=O` [Example 93], the EC50 turned out to be 2.6 nM on human FPR2 and 68 nM on human FPR1.

With `COc1cc(F)c([C@@H]2CN(c3cccn(C(F)F)c3=O)C(=O)[C@H]2NC(=O)c2ccc(Cl)cc2)c(F)c1` [Example 94], the 50% effective concentration (EC50) at human FPR2 worked out at 2.7 nM; at human FPR1 it was 95 nM.

On to `COc1cc(F)c([C@@H]2CN(c3ccc[nH]c3=O)C(=O)[C@H]2NC(=O)c2ccc(OC(F)F)cc2)c(F)c1` [Example 95], for which the EC50 was 2.7 nM on human FPR2 and 160 nM at human FPR1.

On to `COc1cc(F)c([C@@H]2CN(c3cccn(CC4CC(F)(F)C4)c3=O)C(=O)[C@H]2NC(=O)c2ccc(OC(F)F)cc2)c(F)c1` [Example 96], for which the EC50 at human FPR2 turned out to be 2.7 nM; at human FPR1 it was 46 nM.

On to `COc1cc(F)c([C@@H]2CN(c3cccn(CCN(C)C)c3=O)C(=O)[C@H]2NC(=O)c2ccc(OC(F)F)cc2)c(F)c1` [Example 97], for which the EC50 on human FPR2 was determined as 2.7 nM; at human FPR1, 350 nM.

Turning to `CCn1cccc(N2C[C@@H](c3c(F)cc(OC)cc3F)[C@H](NC(=O)c3ccc(Cl)cc3)C2=O)c1=O` [Example 98], the figures for the EC50 on human FPR2 and at human FPR1 were 2.7 nM and 43 nM, respectively.

`COc1cc(F)c([C@@H]2CN(c3cccn(CCN4CCOCC4)c3=O)C(=O)[C@H]2NC(=O)c2ccc(OC(F)F)cc2)c(F)c1` [Example 99]: the values for the EC50 at human FPR2 and at human FPR1 were 2.7 nM and 330 nM, respectively.

On to `COCCn1cccc(N2C(=O)[C@@H](NC(=O)c3ccc(OC(F)(F)F)cc3)[C@H](c3c(F)cc(OC)cc3F)[C@@H]2C)c1=O` [Example 100], for which the concentration giving a half-maximal response (EC50) is 2.7 nM on human FPR2 and 22 nM on human FPR1.

Consider `O=C(N[C@@H]1C(=O)N(c2cccn(CCO)c2=O)C[C@H]1c1ccc(Cl)cc1)c1ccc(OC(F)(F)F)cc1` [Example 102], for which the EC50 on human FPR2 came out at 2.8 nM; at human FPR1, 4.7 nM.

Regarding `COc1cc(F)c([C@@H]2CN(c3cccn(CC(C)OC)c3=O)C(=O)[C@H]2NC(=O)c2ccc(OC(F)(F)F)cc2)c(F)c1` (some centres unmarked) [Example 103], the EC50 was 2.8 nM at human FPR2 and 1.9 nM on human FPR1.

Consider `COc1cc(F)c([C@@H]2CN(c3cccn(CC(C)O)c3=O)C(=O)[C@H]2NC(=O)c2ccc(OC(F)F)cc2)c(F)c1` (some centres unmarked) [Example 104], for which the EC50 amounted to 2.9 nM on human FPR2 and 120 nM on human FPR1.

For the molecule `COCCn1cccc(N2C(=O)[C@@H](NC(=O)c3ccc(OC(F)F)cc3)[C@H](c3c(F)cc(OC)cc3F)[C@@H]2C)c1=O` [Example 105], the EC50 turned out to be 2.9 nM on human FPR2 and 65 nM at human FPR1.

In the case of `COc1cc(NCCO)nc(N2C[C@@H](c3c(F)cc(OC)cc3F)[C@H](NC(=O)c3ccc(Cl)cc3)C2=O)c1` [Example 106], the EC50 at human FPR2 stood at 2.9 nM; at human FPR1, 870 nM.

With `COCCn1cccc(N2C[C@@H](c3ccc(Cl)cc3)[C@H](NC(=O)c3ccc(OC(F)(F)F)cc3)C2=O)c1=O` [Example 107], the EC50 at human FPR2 was found to be 2.9 nM; on human FPR1, 5.7 nM.

Take `COc1ccc([C@@H]2CN(c3c(C)ccn(CCO)c3=O)C(=O)[C@H]2NC(=O)c2ccc(OC(F)(F)F)cc2)cc1` [Example 108]: the half-maximal effective concentration (EC50) on human FPR2 was 2.9 nM; on human FPR1 it was 0.4 nM.

In the case of `COc1cc(F)c([C@@H]2CN(c3nccc(N4C[C@@H](C)N(C)[C@@H](C)C4)c3C(F)(F)F)C(=O)[C@H]2NC(=O)c2ccc(OC(F)F)cc2)c(F)c1` [Example 109], the EC50 at human FPR2 was 2.9 nM; at human FPR1 it was 500 nM.

With `O=C(N[C@@H]1C(=O)N(c2cccn(CCO)c2=O)C[C@H]1c1ccc(Cl)cc1)c1ccc(OC(F)F)cc1` [Example 110], the figures for the half-maximal effective concentration (EC50) at human FPR2 and at human FPR1 were 2.9 nM and 20 nM, respectively.

For `COc1cc(F)c([C@@H]2CN(c3nc(C)ccc3F)C(=O)[C@H]2NC(=O)c2ccc(Cl)cc2)c(F)c1` [Example 111], the values for the EC50 at human FPR2 and at human FPR1 were 3 nM and 1100 nM, respectively.

In the case of `COCC(CO)n1ccc(C)c(N2C[C@@H](c3c(F)cc(OC)cc3F)[C@H](NC(=O)c3ccc(OC(F)F)cc3)C2=O)c1=O` (some centres unmarked) [Example 112], the values for the EC50 on human FPR2 and at human FPR1 were 3 nM and 2.8 nM, respectively.

Consider `COCCn1cccc(N2C[C@@H](c3c(F)cc(OC)cc3F)[C@H](NC(=O)c3ccc(OC(F)F)cc3)C2=O)c1=O` [Example 113], for which the 50% effective concentration (EC50) on human FPR2 was 3 nM; at human FPR1, 16 nM.

Consider `COc1cc(F)c([C@@H]2CN(c3nc(N(C)C(C)=O)ccc3F)C(=O)[C@H]2NC(=O)c2ccc(OC(F)(F)F)cc2)c(F)c1` [Example 114], for which the EC50 amounted to 3 nM on human FPR2 and 5.9 nM at human FPR1.

For the molecule `COc1cc(F)c([C@@H]2CN(c3c(C)ccn(CCO)c3=O)C(=O)[C@H]2NC(=O)c2ccc(OC(F)(F)F)cc2)c(F)c1` [Example 115], the EC50 on human FPR2 was 3.1 nM; on human FPR1 it was 2.4 nM.

Turning to `COc1cc(F)c([C@@H]2CN(c3cccn(C4CC4)c3=O)C(=O)[C@H]2NC(=O)c2ccc(C(F)(F)F)cc2)c(F)c1` [Example 116], the results for the EC50 at human FPR2 and on human FPR1 were 3.1 nM and 34 nM, respectively.

For the molecule `COc1cc(F)c([C@@H]2CN(c3nc(N4CC(F)(F)C4)ccc3F)C(=O)[C@H]2NC(=O)c2ccc(OC(F)F)cc2)c(F)c1` [Example 117], the EC50 at human FPR2 turned out to be 3.1 nM; on human FPR1, 210 nM.

Take `COCC(CO)n1cccc(N2C[C@@H](c3ccc(Cl)cc3)[C@H](NC(=O)c3ccc(OC(F)F)cc3)C2=O)c1=O` (some centres unmarked) [Example 118]: the half-maximal effective concentration (EC50) is 3.1 nM on human FPR2 and 4.1 nM on human FPR1.

Turning to `COc1cc(F)c([C@@H]2CN(c3nc(N4C(=O)C5CCCC54)ccc3F)C(=O)[C@H]2NC(=O)c2ccc(OC(F)F)cc2)c(F)c1` (some centres unmarked) [Example 119], the 50% effective concentration (EC50) on human FPR2 was 3.1 nM; at human FPR1, 67 nM.

Take `COc1ccc([C@@H]2CN(c3cccn(CC(F)F)c3=O)C(=O)[C@H]2NC(=O)c2ccc(OC(F)(F)F)cc2)cc1` [Example 120]: the EC50 at human FPR2 worked out at 3.1 nM; on human FPR1, 13 nM.

On to `COc1ccc([C@@H]2CN(c3c(C)ccn(CC(F)F)c3=O)C(=O)[C@H]2NC(=O)c2ccc(OC(F)(F)F)cc2)cc1` [Example 121], for which the EC50 came out at 3.1 nM at human FPR2 and 1.4 nM on human FPR1.

For `COc1cc(F)c([C@@H]2CN(c3nc(NC4CCOC4)ccc3F)C(=O)[C@H]2NC(=O)c2ccc(OC(F)F)cc2)c(F)c1` (some centres unmarked) [Example 122], the concentration giving a half-maximal response (EC50) is 3.2 nM at human FPR2 and 1080 nM at human FPR1.

For `COc1cc(F)c([C@@H]2CN(c3cccnc3OC(F)F)C(=O)[C@H]2NC(=O)c2ccc(Cl)cc2)c(F)c1` [Example 123], the concentration giving a half-maximal response (EC50) on human FPR2 worked out at 3.2 nM; on human FPR1 it was 41 nM.
